Experimental data: paper PMC11091889, “Silver Organometallics that are Highly Potent Thioredoxin and Glutathione Reductase Inhibitors: Exploring the Correlations of Solution Chemistry with the Strong Antibacterial Effects” (ACS Infectious Diseases, 2024)

Columns and labels:
[1] = test system: E. faecium (DSM 20477, ATCC 19434); test: Broth microdilution antibacterial assay; format: cell-based, Enterococcus faecium; details: n = 3, TSY; for MIC E. faecium / EC50: mean ± standard error; for MIC E. faecium / MIC E. faecium (value in brackets): 22 h; for EC50: read-out: EC50 E. faecium
In short: (§1)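 Broth microdilution used 2–8 × 10^5 CFU/mL inocula, with compounds serially diluted 64 to 1 μg/mL and incubated 22 h at 37 °C, read at 600 nm. A. baumannii, K. pneumoniae and P. aeruginosa were grown in MHB pH 7.4; E. faecium was grown in TSY pH 7.0–7.2. MIC and EC50 were obtained by curve fitting from three independent experiments.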

[2] = test system: S. aureus MRSA (DSM 11822, ICB 25701); test: microbe, parasite or virus in culture; format: cell-based, methicillin resistant S. aureus; details: n = 3, TSY; for MIC MRSA / EC50: mean ± standard error; for MIC MRSA / MIC MRSA (value in brackets): 22 h; for EC50: read-out: EC50 MRSA
In short: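 Broth microdilution in TSY (30 g/L trypticase soy broth, 3 g/L yeast extract, pH 7.0–7.2), inoculum 2–8 × 10^5 CFU/mL, compounds serially diluted 64 to 1 μg/mL, 22 h at 37 °C. Growth read as absorbance at 600 nm; MIC and EC50 obtained by curve fitting, three independent experiments.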

[3] = test system: P. aeruginosa PA7 (DSM 24068); test: microbe, parasite or virus in culture; format: cell-based, Pseudomonas aeruginosa; details: n = 3, MHB; for MIC P. aeruginosa / EC50: mean ± standard error; for MIC P. aeruginosa / MIC P. aeruginosa (value in brackets): 22 h; for EC50: read-out: EC50 P. aeruginosa
In short: as §1

[4] = target: T1, glutathione reductase (GR) from E. coli (Escherichia coli, UniProt P06715); test: GR inhibition assay (DTNB reduction); format: biochemical; details: ± standard deviation, n = 3, 75 min preincubation
T1 construct: purchased Antibodies online
T1 sequence (P06715 1-450): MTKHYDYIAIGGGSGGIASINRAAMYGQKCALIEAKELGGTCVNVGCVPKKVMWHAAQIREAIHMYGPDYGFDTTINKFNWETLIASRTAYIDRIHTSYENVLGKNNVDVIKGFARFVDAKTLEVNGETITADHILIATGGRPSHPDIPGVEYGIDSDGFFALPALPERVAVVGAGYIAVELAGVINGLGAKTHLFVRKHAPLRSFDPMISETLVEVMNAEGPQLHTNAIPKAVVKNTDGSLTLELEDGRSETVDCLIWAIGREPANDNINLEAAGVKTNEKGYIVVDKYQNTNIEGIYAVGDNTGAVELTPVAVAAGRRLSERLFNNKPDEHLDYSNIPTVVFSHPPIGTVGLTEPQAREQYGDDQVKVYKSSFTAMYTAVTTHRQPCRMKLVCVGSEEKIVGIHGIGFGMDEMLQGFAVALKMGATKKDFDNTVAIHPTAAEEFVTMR
Protocol: The inhibition of purified E. coli thioredoxin reductase (TrxR) and glutathione reductase (GR) from both E. coli and baker’s yeast was determined according to a previously applied procedure.[59],[60]
The TrxR (E. coli) and GR (baker’s yeast and E. coli) inhibition assays were performed according to previously published procedures.[62],[75] The assays are partly based on the procedure developed by Lu et al.[60] and make use of the reduction of 5,5′-dithiobis(2-nitrobenzoic acid) (DTNB). Solutions of E. coli TrxR (35.4 U/mL) and E. coli thioredoxin (Trx) (156 μg/mL) (both purchased from Sigma-Aldrich) or baker’s yeast GR (0,08 U/mL, Sigma-Aldrich) or E. coli GR (4.2 U/ml, Antibodies online) and GSSG (0.28 mM, Sigma-Aldrich) in distilled water were prepared, as were fresh 2 mM stock solutions of the test compounds in DMSO. Then, solutions with several concentrations of the test compounds in DMSO were prepared, and 35 μL of each solution was diluted with 965 μL of TE buffer (Tris–HCl 50 mM, EDTA 1 mM, pH 7.5). These solutions (20 μL) or TE buffer without the test compounds (20 μL, as control) were mixed with the TrxR or GR solutions (10 μL), the Trx or GSSG solutions (10 μL), and a solution of NADPH (200 μM) in TE buffer (100 μL) in a well on a 96-well plate. As a blank solution, 200 μM NADPH in TE buffer (100 μL) mixed with a DMSO/buffer mixture (40 μL) was used (final concentrations of DMSO: 0.5% v/v). The plate was incubated for 75 min at 25 °C with moderate shaking. After incubation, 100 μL of a reaction mixture (TE buffer containing 200 μM NADPH and 5 mM DTNB) was added to each well to initiate the reaction. After thorough mixing, the formation of 5-TNB was monitored by a microplate reader at 405 nm in 35 s intervals (10 measurements). The values were corrected by subtraction of the blank solution absorption values. The increase in the concentration of 5-TNB followed a linear trend (r^2 ≥ 0.990), and the enzymatic activities were calculated as the gradients (increase in absorbance per second) thereof. […] The inhibition is presented as the mean IC50 values and standard deviations obtained in three independent experiments.

[5] = test system: E. coli (DSM1116, ATCC 9637); test: microbe, parasite or virus in culture; format: cell-based, Escherichia coli; details: for MIC E. coli DSM 1116 in MHB + tryptone: Müller-Hinton Broth with tryptone (17 g/L); for MIC E. coli DSM 1116 in MHB + tryptone / MIC E. coli DSM 1116 in MHB + yeast extract / MIC E. coli DSM 1116 in MHB: ± SE; for MIC E. coli DSM 1116 in MHB + yeast extract: Müller-Hinton Broth with yeast extract (3 g/L); for MIC E. coli DSM 1116 in MHB: Müller-Hinton Broth without additive; for EC50 / MIC E. coli: mean ± standard error; for EC50 / MIC E. coli / MIC E. coli (value in brackets): n = 3, MHB; for MIC E. coli / MIC E. coli (value in brackets): 22 h
In short: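 Escherichia coli DSM1116 (ATCC 9637) was tested by broth microdilution in 96-well plates in duplicate, with compounds serially diluted from 64 to 1 μg/mL. Inocula of 2–8 × 10^5 CFU/mL were used in MHB (21 g/L Müller Hinton broth, pH 7.4), either alone or supplemented with tryptone (17 g/L) or yeast extract (3 g/L). After 22 h at 37 °C, absorbance at 600 nm was read. MIC and EC50 were obtained by curve fitting in Sigma Plot from three independent experiments, and ciprofloxacin served as the positive control.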

[6] = Conductometry: molar conductivity of silver complexes in DMSO; format: physicochemical; details: 1.0 mM in DMSO, calculated as monocarbene (NHC)AgX
In short: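 Molar conductivity of each silver complex was measured at 1.0 mM in freshly distilled DMSO (specific conductivity ≤3 × 10^–8 S cm^–1) using an Apera Instruments EC9500 conductivity meter at 25 ± 2 °C. AgNO3 served as the 1:1 electrolyte reference, and readings were taken after dissolution to distinguish neutral monocarbene from ionic biscarbene forms.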

CC(C)n1[c](=[Ag][Br])n(Cc2ccccn2)c2ccccc21 [3b, Bromido (1-Isopropyl-3-(pyridin-2-ylmethyl)-benzimidazol-2-ylidene) Silver(I)]
MIC E. faecium [1]: 146 ± 0.0 µM | EC50 [1]: 123 ± 0.4 µM | MIC E. faecium (value in brackets) [1]: 64 µg/mL | MIC MRSA [2]: 146 ± 0.0 µM | EC50 [2]: 78.8 ± 0.4 µM | MIC MRSA (value in brackets) [2]: 64 µg/mL | MIC P. aeruginosa [3]: 60.7 ± 12.1 µM | EC50 [3]: 30 ± 6.9 µM | MIC P. aeruginosa (value in brackets) [3]: 26 µg/mL | IC50 [4]: 0.041 ± 0.007 µM | MIC E. coli DSM 1116 in MHB + tryptone [5]: 145.7 ± 0.0 µM | MIC E. coli DSM 1116 in MHB + yeast extract [5]: 121.5 ± 24.3 µM | MIC E. coli DSM 1116 in MHB [5]: 36.4 ± 0.0 µM | EC50 [5]: 28.7 ± 3.6 µM | MIC E. coli [5]: 36.4 ± 0.0 µM | MIC E. coli (value in brackets) [5]: 16 µg/mL | Molar conductivity ΛM ([6]; 1 h after dissolution): 5.25 S cm^2 mol^–^1 | Molar conductivity ΛM ([6]; 24 h after dissolution): 4.71 S cm^2 mol^–^1

COCCn1[c](=[Ag][I])n(Cc2ccccn2)c2ccccc21 [4c, Iodido (1-(2-Methoxyethyl)-3-(pyridin-2-ylmethyl)-benzimidazol-2-ylidene) Silver(I)]
MIC E. faecium [1]: > 128 µM | EC50 [1]: > 128 µM | MIC E. faecium (value in brackets) [1]: > 64 µg/mL | MIC MRSA [2]: > 128 µM | EC50 [2]: > 128 µM | MIC MRSA (value in brackets) [2]: > 64 µg/mL | MIC P. aeruginosa [3]: 18.6 ± 7.0 µM | EC50 [3]: 4.9 ± 1.2 µM | MIC P. aeruginosa (value in brackets) [3]: 9 µg/mL | EC50 [5]: 14.4 ± 2.7 µM | MIC E. coli [5]: 21.2 ± 5.3 µM | MIC E. coli (value in brackets) [5]: 11 µg/mL | Molar conductivity ΛM ([6]; 1 h after dissolution): 7.18 S cm^2 mol^–^1 | Molar conductivity ΛM ([6]; 24 h after dissolution): 8.83 S cm^2 mol^–^1

CC(C)n1[c](=[Ag][I])n(Cc2ccccn2)c2ccccc21 [3c, Iodido (1-Isopropyl-3-(pyridin-2-ylmethyl)-benzimidazol-2-ylidene) Silver(I)]
MIC E. faecium [1]: 65.8 ± 0.0 µM | EC50 [1]: 60.9 ± 0.1 µM | MIC E. faecium (value in brackets) [1]: 32 µg/mL | MIC MRSA [2]: > 132 µM | EC50 [2]: > 132 µM | MIC MRSA (value in brackets) [2]: > 64 µg/mL | MIC P. aeruginosa [3]: 11.0 ± 2.7 µM | EC50 [3]: 6 ± 1 µM | MIC P. aeruginosa (value in brackets) [3]: 5 µg/mL | IC50 [4]: 0.039 ± 0.006 µM | MIC E. coli DSM 1116 in MHB + tryptone [5]: 54.9 ± 11.0 µM | MIC E. coli DSM 1116 in MHB + yeast extract [5]: 43.9 ± 11.0 µM | MIC E. coli DSM 1116 in MHB [5]: 11.0 ± 2.7 µM | EC50 [5]: 8.8 ± 2.5 µM | MIC E. coli [5]: 11.0 ± 2.7 µM | MIC E. coli (value in brackets) [5]: 5 µg/mL | Molar conductivity ΛM ([6]; 1 h after dissolution): 8.15 S cm^2 mol^–^1 | Molar conductivity ΛM ([6]; 24 h after dissolution): 7.62 S cm^2 mol^–^1

CC(C)n1[c](=[Ag][Cl])n(Cc2ccccn2)c2ccccc21 [3a, Chlorido (1-Isopropyl-3-(pyridin-2-ylmethyl)-benzimidazol-2-ylidene) Silver(I)]
MIC E. faecium [1]: 162 ± 0.0 µM | EC50 [1]: 139 ± 0.4 µM | MIC E. faecium (value in brackets) [1]: 64 µg/mL | MIC MRSA [2]: 162 ± 0.0 µM | EC50 [2]: 88.6 ± 1.6 µM | MIC MRSA (value in brackets) [2]: 64 µg/mL | MIC P. aeruginosa [3]: 81.1 ± 0.0 µM | EC50 [3]: 39.1 ± 8.8 µM | MIC P. aeruginosa (value in brackets) [3]: 32 µg/mL | IC50 [4]: 0.032 ± 0.002 µM | MIC E. coli DSM 1116 in MHB + tryptone [5]: 162.2 ± 0.0 µM | MIC E. coli DSM 1116 in MHB + yeast extract [5]: 162.2 ± 0.0 µM | MIC E. coli DSM 1116 in MHB [5]: 40.5 ± 0.0 µM | EC50 [5]: 35.3 ± 1.1 µM | MIC E. coli [5]: 40.5 ± 0.0 µM | MIC E. coli (value in brackets) [5]: 16 µg/mL | Molar conductivity ΛM ([6]; 1 h after dissolution): 3.34 S cm^2 mol^–^1 | Molar conductivity ΛM ([6]; 24 h after dissolution): 2.91 S cm^2 mol^–^1
